Results on two molecules are retold here after PMC12836451, “Cyclic Peptide–Polymer Conjugate Nanotubes for Delivery of SN‐38 in Treatment of Colorectal Cancer Model” (Advanced Healthcare Materials, 2025).

Structures can show the parent of a compound that is named as a salt. Where two headings read alike, the source gives them in different places. Some results are limits rather than exact numbers.

Data set [1] can be described thus: Pharmacokinetics study in mice (plasma, LC-MS, non-compartmental). Particulars: non-tumor female BALB/c mice, i.v., irinotecan 15 mg kg−1 or SN-38 nanotubes 10 mg kg−1 drug, SN-38 = prodrug and hydrolysed forms combined.
The test system of the next data set is CT26 xenograft. The settings on record: CT26 xenograft mice, three i.v. doses.
The conditions of data set [2]: cited from earlier work. From the text: Despite significant scientific advances in recent decades, cancer remains one of the most formidable challenges for modern medicine. The rising rates of colorectal cancer (CRC) diagnoses, particularly amongst younger people, exemplify the new complexities faced. Despite efforts to promote early detection and fast onset of treatment, the prognosis for CRC remains grim, ranking as one of the deadliest malignancies worldwide.

The test system of the next data set is CT26 cells. Put plainly: MTS cell viability assay. It counts as cell-based, murine. The settings on record: Mus musculus, CT26, 48 h. The procedure: Cells were typically grown to 70–80% confluence before passaging, and cells were not used past 20 passages total.
The wells were then treated with 20 µL of MTS reagent (Promega, CellTiter 96 AQeuous One Solution Cell Proliferation Assay) for 4 h, before UV absorbance reading on Biotek Cytation 3 Plate reader (490 nm). The relative cell viability was determined by comparison to untreated cells or cells with DMSO or EtOH at a range of concentrations.
A general note: Tetrazolium dyes change colour on reduction, which living cells bring about.

A further data set concerns CT26 spheroids. The experiment in a line: 3D spheroid growth assay. It counts as cell-based, murine. Particulars: 10 µM, control grew by over 300 µm. The procedure: CT26 cells were harvested and seeded in a non‐tissue culture‐treated, U‐bottom‐shaped 96‐well plates at a density of 500 cells per well (200 µL media per well), before centrifugation at 500 xG for 10 minutes. The plate incubated and the spheroids allowed to form over a period of days (typically 5–8). […] Non‐treated/Control spheroids received fresh media.

Turning to `CCc1c2c(nc3ccc(OC(=O)N4CCC(N5CCCCC5)CC4)cc13)-c1cc3c(c(=O)n1C2)COC(=O)[C@]3(O)CC` [Irinotecan, irinotecan hydrochloride], the C max in data set [1] is 29.6 µM. For the same molecule, in the data set on CT26 xenograft, the “tolerability (body weight, welfare scoring)” value is given as “well tolerated”. Besides, the “reduction of potency compared to SN-38” value in data set [2] is reported as 100–1000 fold. Moreover, in the data set with CT26 cells (n = 3, read-out: concentration required to achieve more than 50% cell death), the IC50 was greater than 10000 nM. Also, in the data set with CT26 spheroids, the “increase of spheroid diameter over 5 days” value is 40 µm.
For `CCc1c2c(nc3ccc(O)cc13)-c1cc3c(c(=O)n1C2)COC(=O)[C@]3(O)CC` [SN-38, 7‐ethyl‐10‐hydroxycamptothecin], in data set [2] (reason for not testing in vivo), the aqueous solubility entry is recorded as “poor aqueous solubility”. In addition, the IC50 in the data set with CT26 cells (concentrations are SN-38 concentration, n = 3, read-out: IC50) is roughly 200 nM.
